The record followed here is patent US10494384B2, “Urea peptoid boric acid compound, pharmaceutical composition thereof, preparation method therefor, and uses thereof” (Peking University, priority 2015, dated 2019).

Assay [1] deals with T1, 20S proteasome extracted from rat liver (PGPH) (Rattus norvegicus, UniProt P28073+Q9JHW0).
T1 construct: 20S proteasome extracted from rat liver; from tissue; host or cells: rat liver
The experiment in a line: inhibition of 20S proteasome, PGPH activity (fluorescent peptide). The format is biochemical. The conditions noted are these: for inhibition at 0.2 µM / inhibition at 2 µM / inhibition at 20 µM: rat liver 20S proteasome, 37° C., 1 h, read-out: inhibition rates (%) PGPH. The protocol: (§1) 1 μg of 20S proteasome extracted from rat liver was incubated with a 100 μL solution containing various concentrations of the present compounds, 50 μM fluorescent peptides and 20 mM Tris-HCl at 37° C. for 1 h, respectively. […] 0.1% DMSO was used as a solvent control. Compared with the fluorescence of solvent control, an inhibition rate or IC50 value was calculated.

Assay [2] deals with T2, 20S proteasome extracted from rat liver (T-L) (Rattus norvegicus, UniProt P40112+Q9JHW0).
T2 construct: 20S proteasome extracted from rat liver; from tissue; host or cells: rat liver
Put plainly: inhibition of 20S proteasome, T-L activity (fluorescent peptide). The format is biochemical. Particulars: for inhibition at 0.2 µM / inhibition at 2 µM / inhibition at 20 µM: 37° C., 1 h, read-out: inhibition rates (%) T-L. The protocol:
as §1

Another assay has as its system A549, human lung cancer. The experiment in a line: preliminary anti-tumor screening in vitro, SRB method. The format is cell-based. The conditions noted are these: read-out: inhibition rates (%) A549. The protocol: (§2) The test methods used in this test example are routine methods for anti-tumor activities test in pharmaceutical area, for example, referring to the following reference: (J. Immunol Method, 1983, 65, 55).
(§3) Test models: A: MTT method (Hela, human cervical carcinoma); B: SRB method (BGC-823, […]); C: SRB method (MCF-7, breast cancer); D: SRB method (A549, human lung cancer); E: SRB method (PC3M1E8, prostate cancer).
(§4) Inhibition rates of the compounds were measured under concentrations of 0.1 μM, 1 μM or 10 μM.

The subject of another assay is MCF-7, breast cancer. The assay is described as above. Particulars: Homo sapiens, read-out: inhibition rates (%) MCF-7; for inhibition at 0.1 µM: MCF7, 0.1 μM; for inhibition at 1 µM: MCF7, 1 μM; for inhibition at 10 µM: MCF7, 10 μM. The format is cell-based. The method, then:
as §2, §3, §4

Another assay concerns BGC-823, liver cancer. The description is as above. The format is cell-based. The conditions noted are these: Homo sapiens, read-out: inhibition rates (%) BGC-823. The method, then: as §2, §3, §4
The subject of assay [3] is Hela, human cervical carcinoma. The experiment in a line: preliminary anti-tumor screening in vitro, MTT method. Particulars: read-out: inhibition rates (%) Hela. The format is cell-based. The protocol:
as §2, §3, §4

Assay [4] has as its target T3, 20S proteasome extracted from rat liver (CT-L) (Rattus norvegicus, UniProt P18421+P28075).
T3 construct: 20S proteasome extracted from rat liver; from tissue; host or cells: rat liver
The experiment in a line: inhibition of 20S proteasome, CT-L activity (fluorescent peptide). Particulars: for inhibition at 0.2 µM / inhibition at 2 µM / inhibition at 20 µM: rat liver 20S proteasome, 37° C., 1 h, read-out: inhibition rates (%) CT-L. The format is biochemical. The method, then:
as §1

Read-outs that look alike come from different tables or passages of the source. Where only a bound is given, the exact number is not on record here.

The term inhibition denotes the relative decrease from the control value, in per cent. In the case of `COc1ccc(CNC(=O)[C@H](Cc2ccccc2)NC(=O)N[C@@H](CC(C)C)B(O)O)cc1` [Example 1, N-L-leucine borate-N′-(p-methoxy-benzylcarbamoyl)-L-phenylalanine-urea], the inhibition at 0.2 µM was 40.9% in assay [1], -6.55% in assay [2] (rat liver 20S proteasome) and 33.8% in assay [4]. Besides, the inhibition at 2 µM in assay [1] was 87.9%; in assay [2] (rat liver 20S proteasome), 22.8%; in assay [4] it was 86.8%. Besides, the figures for the inhibition at 20 µM in assay [1], in assay [2] (rat liver 20S proteasome) and in assay [4] were 96.6%, 35.5% and 93.6%, respectively. In addition, the inhibition at 0.1 µM stood at 1.44% with A549, human lung cancer; 1% in the assay with MCF-7, breast cancer; 7.79% in the assay with BGC-823, liver cancer; 8.67% in assay [3]. Further, the inhibition at 1 µM turned out to be 35.3% in the assay on A549, human lung cancer; 7.46% in the assay on MCF-7, breast cancer; 14.9% in the assay with BGC-823, liver cancer; 28% in assay [3]. In addition, the inhibition at 10 µM stood at 50.2% with A549, human lung cancer; 22.9% in the assay on MCF-7, breast cancer; 32% in the assay on BGC-823, liver cancer; 38.5% in assay [3].
Usually IC50 stands for the point on the concentration scale where inhibition reaches its midpoint. In the case of `CC(C)C[C@H](NC(=O)[C@H](Cc1ccccc1)NC(=O)NCc1cnccn1)B(O)O` [Example 2, N-L-phenylalanyl-L-leucine borate-N′-pyrazin-2-ylmethylamine-urea], the figures for the half-maximal inhibitory concentration (IC50) in assay [1], in assay [2] and in assay [4] were 790 nM, 11.4 µM and 50 nM, respectively.
Turning to `CC(C)C[C@H](NC(=O)N[C@@H](Cc1ccccc1)C(=O)NCC1CCCO1)B(O)O` (stereo partly drawn) [Example 3, N-L-leucine borate-N′-(tetrahydrofuran-2-ylmethylcarbamoyl)-L-phenylalanine-urea], the inhibition at 0.2 µM in assay [1] is 7.38%; in assay [2] (rat liver 20S proteasome), 16.9%; in assay [4], -20.8%. Also, the inhibition at 2 µM in assay [1] is 40.8%; in assay [2] (rat liver 20S proteasome) it was 18.5%; in assay [4], 1.91%. Also, the inhibition at 20 µM in assay [1] amounted to 88.4%; in assay [2] (rat liver 20S proteasome), 35.9%; in assay [4], 68.6%. Also, the inhibition at 0.1 µM in the assay with A549, human lung cancer was found to be 5.55%; with MCF-7, breast cancer, 3.24%; in the assay on BGC-823, liver cancer, 4.73%; in assay [3] it was 10.2%. Besides, the inhibition at 1 µM in the assay with A549, human lung cancer was 16.6%; in the assay with MCF-7, breast cancer it was 9.52%; in the assay on BGC-823, liver cancer, -4.01%; in assay [3] it was 14.2%. For the same compound, the inhibition at 10 µM in the assay with A549, human lung cancer was determined as 14.9%; in the assay on MCF-7, breast cancer, 9.37%; in the assay on BGC-823, liver cancer, 0.96%; in assay [3] it was 19.2%.
Consider `CC(C)C[C@H](NC(=O)N[C@@H](Cc1ccccc1)C(=O)Nc1cccc(OCc2ccccc2)c1)B(O)O` [Example 4, N-L-leucine borate-N′-(3-benzyloxy-phenylcarbamoyl)-L-phenylalanine-urea], for which the results for the inhibition at 0.2 µM in assay [1], in assay [2] (rat liver 20S proteasome) and in assay [4] were 2.03%, 6.92% and -14.2%, respectively. In addition, the figures for the inhibition at 2 µM in assay [1], in assay [2] (rat liver 20S proteasome) and in assay [4] were 2.19%, 4.38% and 10.4%, respectively. The inhibition at 20 µM amounted to 62.7% in assay [1], 36.2% in assay [2] (rat liver 20S proteasome) and 77.7% in assay [4]. Also, the inhibition at 0.1 µM in the assay with A549, human lung cancer is 6.4%; with MCF-7, breast cancer, 6.46%; in the assay on BGC-823, liver cancer, 6.67%; in assay [3], 9.59%. In addition, the inhibition at 1 µM amounted to 16.2% with A549, human lung cancer; 9.07% in the assay on MCF-7, breast cancer; 4.64% in the assay on BGC-823, liver cancer; 11.3% in assay [3]. Also, the inhibition at 10 µM in the assay on A549, human lung cancer was 31.1%; in the assay on MCF-7, breast cancer it was 9.93%; in the assay with BGC-823, liver cancer, 13.1%; in assay [3] it was 25.4%.
In the case of `CC(C)C[C@H](NC(=O)N[C@@H](Cc1ccccc1)C(=O)Nc1cnccn1)B(O)O` [Example 6, N-L-leucine borate-N′-(pyrazin-2-ylcarbamoyl)-L-phenylalanine-urea], the inhibition at 0.2 µM is 17.4% in assay [1], -3.92% in assay [2] (rat liver 20S proteasome) and -0.67% in assay [4]. Moreover, the inhibition at 2 µM in assay [1] amounted to 66.3%; in assay [2] (rat liver 20S proteasome), 2.41%; in assay [4], 44.7%. The inhibition at 20 µM worked out at 93.8% in assay [1], 27.2% in assay [2] (rat liver 20S proteasome) and 86.8% in assay [4]. The inhibition at 0.1 µM in the assay with A549, human lung cancer was -6.94%; in the assay with MCF-7, breast cancer, 0.8%; in the assay with BGC-823, liver cancer, 4.88%; in assay [3] it was 1.74%. The inhibition at 1 µM with A549, human lung cancer was -3.91%; with MCF-7, breast cancer, 1.9%; in the assay on BGC-823, liver cancer, 4.4%; in assay [3], 4.43%. Further, the inhibition at 10 µM with A549, human lung cancer was found to be 7.01%; in the assay with MCF-7, breast cancer it was 6.05%; with BGC-823, liver cancer it was 8.98%; in assay [3], 16.9%.
Take `CC(C)C[C@H](NC(=O)[C@H](Cc1ccccc1)NC(=O)NCCc1ccccc1)B(O)O` [Example 25, N-L-phenylalanyl-L-leucine borate-N′-phenylethylamine-urea]: the IC50 in assay [1] was determined as 240 nM; in assay [2], 1.05 µM; in assay [4], 20 nM.
For the compound `CC(C)C[C@H](NC(=O)[C@H](Cc1ccccc1)NC(=O)N(C)Cc1ccccc1)B(O)O` [Example 29, N-L-phenylalanyl-L-leucine borate-N′—(N-methyl-benzylamine)-urea], the IC50 in assay [2] turned out to be 0.19 µM; in assay [4], 2 nM.
For `Cc1cccc(CNC(=O)N[C@@H](Cc2ccccc2)C(=O)N[C@@H](CC(C)C)B(O)O)c1C` [Example 30, N-L-phenylalanyl-L-leucine borate-N′-2,3-dimethyl-benzylamine-urea], the IC50 in assay [1] is 130 nM; in assay [2], 0.34 µM; in assay [4], 4 nM.
For `CC(C)C[C@H](NC(=O)[C@H](Cc1ccccc1)NC(=O)NCc1cc(Cl)ccc1Cl)B(O)O` [Example 31, N-L-phenylalanyl-L-leucine borate-N′-2,5-dichloro-benzylamine-urea], in that order: 480 nM, 0.53 µM and 40 nM.
`CC(C)C[C@H](NC(=O)[C@H](Cc1ccccc1)NC(=O)NCc1ccco1)B(O)O` [Example 33, N-L-phenylalanyl-L-leucine borate-N′-furan-2-ylmethylamine-urea]: the IC50 in assay [1] amounted to 80 nM; in assay [2], 5.32 µM; in assay [4], 20 nM.
The like results for `CC(C)C[C@H](NC(=O)[C@H](Cc1ccccc1)NC(=O)NCc1cccc([N+](=O)[O-])c1)B(O)O` [Example 36, N-L-phenylalanyl-L-leucine borate-N′-3-nitro-benzylamine-urea] were, in that order, 140 nM, 0.19 µM and 3 nM.
With `CC(C)C[C@H](NC(=O)[C@H](Cc1ccccc1)NC(=O)N1CCc2ccccc2C1=O)B(O)O` [Example 37, N-(1-oxo-1,2,3,4-dihydroisoquinolin-2-ylformyl)-L-phenylalanyl-L-leucine borate], the IC50 was 1240 nM in assay [1]; > 20 µM in assay [2] (rat liver 20S proteasome, read-out: IC50 (μM) T-L); 660 nM in assay [4].
